# Source: patent publication US11918662B2, “Heterocyclic compounds and imaging agents for imaging huntingtin protein” (CHDI Foundation, Inc., priority 2020, dated 2024)
# pIC50: −log10 of the molar value.
# Target: T1, MBP-HTT(1-89)Q46-His(6×) (“Exon1-Q46”) protein aggregates (Homo sapiens, UniProt P42858, INS38QQQQQQQQQQQQQQQQQQQQQQQQQ)
# T1 construct: MBP-HTT(1-89)Q46-His(6×); His(6×) (C); made in house
# Assay: Exon1-Q46 Radioligand Binding Assay
# Settings: displacement of 0.3 nM [3H3-methyl]-5-((5-methoxypyridin-2-yl)methoxy)-2-(pyrazin-2-yl)benzo[d]oxazole from 1 μM aggregated Exon1-Q46, 60 minutes at 37° C.; read-out: Potency Range (IC50)
# Experimental: Exon1-Q46 Radioligand Binding Assay
# For experiments 30 μM MBP-Exon1-Q46 was incubated with 150 μg/mL thrombin in assay buffer (150 mM NaCl, 50 mM Tris pH 8.0) and 2 mM CaCl2 for 16 hours at 37° C. Aggregated Exon1-Q46 was pelleted by centrifugation for 5 minutes at 13,000 rpm in a bench top centrifuge and re-dissolved in the same volume of assay buffer. […] For the RBA, Q46 protein aggregates and test compounds were pre-incubated in assay buffer for 20 minutes at room temperature, in 100 μL/well in a 96-well plate (pp, round bottom). Then, ligand was added in 50 μL/well and incubated for 60 minutes at 37° C. Final assay concentrations were […] test compound, 1 μM Exon1-Q46 protein (equivalent monomer concentration) and 0.3 nM ligand [^3H3-methyl]-5-((5-methoxypyridin-2-yl)methoxy)-2-(pyrazin-2-yl)benzo[d]oxazole. Samples were transferred onto GF/B filter plates and washed 2× with 200 μL PBS using a Filtermate Harvester. After drying filter plates for 1 hour at 55° C., the back of the plates were sealed with foil and 30 μL/well scintillation fluid (Packard MicroScint 40) added, incubated for 15 minutes in the dark and counted in a MicroBeta reader. […] IC50 values were determined with a sigmoidal inhibition model with four variables (top, bottom, slope, IC50) in a global fit using the normalized replicate data.
# T1 sequence (P42858 with tags, fused parts or gaps with the stated changes limits assumed): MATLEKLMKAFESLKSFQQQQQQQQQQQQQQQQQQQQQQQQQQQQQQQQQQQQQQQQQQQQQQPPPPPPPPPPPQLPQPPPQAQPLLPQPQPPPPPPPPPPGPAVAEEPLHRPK
row,Structure (SMILES),pIC50
1,Cc1ccc(NC(=O)CCCn2c(=O)c3cccn3c3cnccc32)cc1 [Example 6-1],> 7.00
2,COc1ccc(NC(=O)CCCn2c(=O)c3cccn3c3cnccc32)cc1 [Example 6-2],> 7.00
3,COc1cccc(NC(=O)CCCn2c(=O)c3cccn3c3cnccc32)c1 [Example 6-3],> 7.00
4,COc1ccc(NC(=O)CCCn2c(=O)c3cccn3c3cnccc32)nc1 [Example 6-4],> 7.00
5,COc1ccnc(NC(=O)CCCn2c(=O)c3cccn3c3cnccc32)c1 [Example 6-5],> 7.00
6,COc1ccc(NC(=O)CCn2c(=O)c3ccc(Cl)n3c3ccc(F)cc32)nc1 [Example 7-1],> 7.00
7,"COc1ccc(NC(=O)CCn2c(=O)c3ccnn3c3ccc(F)cc32)nc1 [Example 8-1, 3-{7-Fluoro-4-oxo-4H,5H-pyrazolo[1,5-a]quinoxalin-5-yl}-N-(5-methoxypyridin-2-yl)propanamide]",> 7.00
8,O=C(CCn1c(=O)c2ccnn2c2ccc(F)cc21)Nc1ccccc1F [Example 8-2],> 7.00
9,COc1ncccc1NC(=O)CCn1c(=O)c2ccnn2c2ccc(F)cc21 [Example 8-3],> 7.00
10,O=C(CCn1c(=O)c2ccnn2c2ccc(F)cc21)N1CCc2ncccc21 [Example 8-4],> 7.00
11,COc1ccccc1NC(=O)CCn1c(=O)c2ccnn2c2ccc(F)cc21 [Example 8-5],> 7.00
12,O=C(CCn1c(=O)c2ccnn2c2ccc(F)cc21)N1CCc2cnccc21 [Example 8-6],> 7.00
13,O=C(CCn1c(=O)c2ccnn2c2ccc(F)cc21)Nc1ccncc1F [Example 8-7],> 7.00
14,O=C(CCn1c(=O)c2ccnn2c2ccc(F)cc21)N1Cc2cccnc2C1 [Example 8-8],> 7.00
15,Cc1cccc(NC(=O)CCn2c(=O)c3ccnn3c3ccc(F)cc32)n1 [Example 8-9],> 7.00
16,Cc1ccc(NC(=O)CCn2c(=O)c3ccnn3c3ccc(F)cc32)nc1 [Example 8-10],> 7.00
17,Cc1ccnc(NC(=O)CCn2c(=O)c3ccnn3c3ccc(F)cc32)c1 [Example 8-11],> 7.00
18,O=C(CCn1c(=O)c2ccnn2c2ccc(F)cc21)Nc1ccc(F)cn1 [Example 8-12],> 7.00
19,O=C(CCn1c(=O)c2ccnn2c2ccc(F)cc21)N1CCc2ccncc21 [Example 8-13],> 7.00

# The next lines start with the values.
row,pIC50,Structure (SMILES)
1,> 7.00,COc1ncccc1NC(=O)CCn1c(=O)c2cnn(C)c2c2ccc(F)cc21 [Example 9-1]
2,> 7.00,Cn1ncc2c(=O)n(CCC(=O)N3CCc4ccccc43)c3cc(F)ccc3c21 [Example 9-2]
3,> 7.00,COc1ccccc1NC(=O)CCn1c(=O)c2cnn(C)c2c2ccc(F)cc21 [Example 9-3]
4,> 7.00,Cn1ncc2c(=O)n(CCC(=O)N3Cc4cccnc4C3)c3cc(F)ccc3c21 [Example 9-4]
5,> 7.00,Cn1ncc2c(=O)n(CCC(=O)N3CCc4ncccc43)c3cc(F)ccc3c21 [Example 9-5]
6,> 7.00,COc1ccncc1NC(=O)CCn1c(=O)c2cnn(C)c2c2ccc(F)cc21 [Example 9-6]
7,> 7.00,Cn1ncc2c(=O)n(CCC(=O)Nc3ccncc3F)c3cc(F)ccc3c21 [Example 9-7]
8,> 7.00,Cn1ncc2c(=O)n(CCC(=O)N3Cc4ccccc4C3)c3cc(F)ccc3c21 [Example 9-8]
9,> 7.00,Cn1ncc2c(=O)n(CCC(=O)N3CCc4ccncc43)c3cc(F)ccc3c21 [Example 9-9]
10,> 7.00,Cn1ncc2c(=O)n(CCC(=O)N3CCc4cnccc43)c3cc(F)ccc3c21 [Example 9-10]
11,> 7.00,Cn1ncc2c(=O)n(CCC(=O)Nc3ccccc3F)c3cc(F)ccc3c21 [Example 9-11]
12,> 7.00,Cn1ncc2c(=O)n(CCC(=O)N3Cc4ccncc4C3)c3cc(F)ccc3c21 [Example 9-12]
13,> 7.00,Cn1ncc2c(=O)n(CCC(=O)Nc3cccc(F)c3F)c3cc(F)ccc3c21 [Example 9-13]
14,> 7.00,Cn1ncc2c(=O)n(CCC(=O)N3CCc4ccccc4C3)c3cc(F)ccc3c21 [Example 9-14]
